Experimental data from US20250032506A1, “GLUCOCORTICOID RECEPTOR BLOCKADE WITH MIFEPRISTONE TO SENSITIZE PANCREATIC CANCER TO IMMUNOTHERAPY” (BOARD OF REGENTS, THE UNIVERSITY OF TEXAS SYSTEM, priority 2021, published 2025).

How the values were obtained:
SU86.86 cells = test: qPCR, immunoblotting and flow cytometry of PD-L1 and MHC-I pathway expression in SU86.86 cells; assay type: cell-based, human
Experimental: (§1) (See Bardeesy, N., et al. supra). The human PDAC cell lines SU86.86 ([…]), SW1990 ([…]), BXPC-3 ([…]), Miapaca-2 ([…]), Capan-1 ([…]), ASPC-1 ([…]), Hs766T ([…]), Colo357/FG ([…]), L3.6PL ([…]), Panc28 ([…]), Capan-2 ([…]), CF-Pac-1 ([…]), Panc3 (sex unknown), Panc1 ([…]), Panc48 (sex unknown), and HPAC ([…]) were from Mien-Chie Hung's lab stock. […] The BXPC-3, Miapaca-2, Capan-1, ASPC-1, Colo357/FG, L3.6PL, Panc28, Capan-2, CF-Pac-1, Panc3, Panc1, Panc48, and HPAC cell lines were cultured in DMEM/F-12 (Corning, 10-092-CV) supplemented with 10% FBS and 1% penicillin/streptomycin. Cells were grown in a humidified incubator with 5% CO2 at 37° C., and low-passage stocks were maintained in a centralized lab cell bank. Short tandem repeat profiling and mycoplasma tests were done by the Cytogenetics and Cell Authentication Core at MD Anderson Cancer Center.
Membranes were blocked with 10% non-fat milk in TBST and incubated with the primary antibody at 4° C. overnight, followed by incubation with the secondary antibody conjugated with horseradish peroxidase (HRP).

GR = GR (Homo sapiens, UniProt P04150); settings: ChIP-qPCR; co-treatment with mifepristone 100 nM and dexamethasone 100 nM, 30 min; SU86.86
Experimental: SU86.86 cells were grown to 40% confluence in 15-cm dishes in RPMI with 10% FBS, followed by 72-hour incubation in phenol red-free RPMI supplemented with 5% charcoal-stripped FBS. […] Cells were cross-linked with 1% formaldehyde, quenched with glycine, and harvested. After cell lysis with ChIP lysis buffer, cells were digested with Micrococcal Nuclease and sonicated to achieve the majority of DNA fragments between 200 bp and 500 bp. […] Chromatin was eluted from GR ChIP following the manufacturer's protocol.

HY24409 cells [1] = test: qPCR and flow cytometry of PD-L1, MHC-I and B2M in HY24409 cells; assay type: cell-based, mouse; settings: MIFE 20 μM, 48 h
Experimental: as §1

[2] = system: tumors formed by KPC cell lines (HY24409, HY24160); test: Tumor growth in immunodeficient NSG mice implanted with KPC cell lines; assay type: in vivo, mouse; settings: mifepristone oral gavage 60 mg kg-1, twice every 3 days
Experimental: (§2) Orthotopic pancreatic tumor size was determined by MRI. Subcutaneous tumor size was measured with a caliper. […] Animal body weight was measured throughout the study.

[3] = system: orthotopic HY24409 tumors; test: Orthotopic HY24409 pancreatic tumors in C57BL/6 mice; assay type: in vivo, mouse
Experimental: as §2

HY24409 cells [4] = test: Cell cycle analysis after double thymidine block; assay type: cell-based, mouse; settings: flow cytometry; mifepristone 20 μM, 48 h pretreatment; unsynchronized and after release from double thymidine block
Experimental: Cell cycle analysis Cells were seeded in 6-well plates (2×10^5 cells per well) and treated with 2 mM thymidine (Sigma-Aldrich, T9250-1G) for 18 hours, fresh medium for 9 hours, and 2 mM thymidine again for 17 hours to arrest cells in G1/S phases for synchronization. Released cells were collected at the indicated time points by centrifugation, washed in cold PBS, resuspended in 1 ml of 70% ethanol, and stored at −20° C. overnight. Cells were then collected by centrifugation and washed two times with cold PBS. To ensure that only DNA was stained, cells were treated with 50 μl of 100 μg ml^−1 RNase (New England Biolabs, T3018L), and added 425 μl of cell staining buffer (2% FBS in PBS) and 25 μl of propidium iodide solution (BioLegend, 421301). After staining, samples were analyzed by flow cytometry. Cells were gated for PI staining and the cells in G1, S, and G2/M phases were quantitated using FlowJo software.

[5] = system: orthotopic HY19636 tumors; test: Female C57BL/6 mice bearing orthotopic HY19636 tumors; assay type: in vivo, mouse
Experimental: as §2

Chain of GR (P04150 whole entry, the tested form may be a part): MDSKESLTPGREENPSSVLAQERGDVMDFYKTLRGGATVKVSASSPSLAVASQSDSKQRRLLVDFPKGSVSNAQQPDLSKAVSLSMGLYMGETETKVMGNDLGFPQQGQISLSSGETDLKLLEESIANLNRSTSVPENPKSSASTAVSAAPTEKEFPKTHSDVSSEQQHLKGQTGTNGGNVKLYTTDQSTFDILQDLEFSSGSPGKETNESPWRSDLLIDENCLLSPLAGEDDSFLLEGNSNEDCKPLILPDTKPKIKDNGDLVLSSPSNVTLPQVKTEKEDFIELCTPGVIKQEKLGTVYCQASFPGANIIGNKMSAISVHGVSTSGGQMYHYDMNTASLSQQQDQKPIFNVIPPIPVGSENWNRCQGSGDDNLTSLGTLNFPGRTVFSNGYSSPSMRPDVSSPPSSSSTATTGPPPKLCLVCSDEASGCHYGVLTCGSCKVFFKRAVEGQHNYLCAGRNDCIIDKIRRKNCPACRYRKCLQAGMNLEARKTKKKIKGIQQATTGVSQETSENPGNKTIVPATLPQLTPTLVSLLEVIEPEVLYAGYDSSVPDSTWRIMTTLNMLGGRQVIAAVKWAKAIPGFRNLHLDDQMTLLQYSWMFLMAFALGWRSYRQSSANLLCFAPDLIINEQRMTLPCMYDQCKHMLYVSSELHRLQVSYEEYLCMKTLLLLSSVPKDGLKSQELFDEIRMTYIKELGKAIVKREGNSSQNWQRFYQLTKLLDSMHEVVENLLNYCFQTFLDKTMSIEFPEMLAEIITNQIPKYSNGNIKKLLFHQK

Structure (SMILES): CC#C[C@]1(O)CC[C@H]2[C@@H]3CCC4=CC(=O)CCC4=C3[C@@H](c3ccc(N(C)C)cc3)C[C@@]21C [mifepristone]
- PD-L1 protein (SU86.86 cells; Western blot and flow cytometric analysis, MIFE 72 h): downregulated
- MHC-I and B2M proteins (SU86.86 cells; Western blot and flow cytometry, MIFE 72 h): upregulation
- mRNA levels of components in the MHC-I pathway, including HLA-A, HLA-B, HLA-C, B2M, SEC61B, and SEC61G (SU86.86 cells; qPCR, MIFE 20 μM, 72 h): increased
- mRNA levels of immune checkpoint ligands, including PD-L1, CD47, TDO, and SIGLEC15 (SU86.86 cells; qPCR, MIFE 20 μM, 72 h): decreased
- dexamethasone-induced binding of promoter sites to GR (GR): reversed
- surface PD-L1 levels (HY24409 cells [1]; flow cytometry): decreased
- surface protein levels of MHC-I (H-2K^b) and B2M (HY24409 cells [1]; flow cytometry): increased
- MHC-I and B2M mRNA levels (HY24409 cells [1]; qPCR): increase
- PD-L1 mRNA levels (HY24409 cells [1]; qPCR): decrease
- growth of tumors formed by KPC cell lines [2]: neither mifepristone treatment (FIGS. 11A-11J) nor shRNA-mediated GR knockdown (FIGS. 11K-11N) affected the growth of tumors
- body weight ([3]; C57BL/6 mice bearing orthotopic HY24409 tumors, mifepristone 60 mg kg-1): without significant loss of body weight
- orthotopic pancreatic tumor volume (magnetic resonance imaging) and weight ([3]; C57BL/6 mice, HY24409, mifepristone oral gavage 60 mg kg-1, twice every 3 days): substantial reductions
- tumor growth inhibition upon antibody-mediated depletion of CD8+ T cells ([3]; C57BL/6 mice, orthotopic HY24409, mifepristone plus anti-CD8 antibody): abolished
- reduction in tumor weight at the endpoint ([3]; C57BL/6 mice, orthotopic HY24409, vs vehicle or control shRNA): 67.7%
- cell cycle profile (HY24409 cells [4]): neither GR knockdown (FIGS. 11Q-11R) nor mifepristone treatment (FIGS. 11S-11T) altered the cell cycle profile
- body weight [5]: without reducing body weight
- tumor growth [5]: markedly inhibited tumor growth
- sensitivity of tumors to dual ICB ([5]; mifepristone with dual ICB): rendered sensitivity to dual ICB
